Results published in ChEMBL document CHEMBL5346973 (J Med Chem, 2023).
pIC50: −log10 of the molar value. Where a SMILES comes first, the peptide text is derived from it.

Columns and labels:
[1] = molecular target: Neuronal acetylcholine receptor subunit alpha-7 (Rattus norvegicus, UniProt Q05941); assay: Antagonist activity at rat alpha7 nACh receptor expressed in Xenopus oocyte assessed as inhibition of acetylcholine-induced response at -70 mV holding potential by voltage-clamp based electrophysiological assay; type: cell-based
[2] = molecular target: Nicotinic acetylcholine receptor alpha9/alpha10 (Rattus norvegicus, UniProt P43144+Q9JLB5); assay: Antagonist activity at rat alpha9alpha10 nACh receptor expressed in Xenopus oocyte assessed as inhibition of acetylcholine-induced response at -70 mV holding potential by voltage-clamp based electrophysiological assay; type: cell-based
Chain of Nicotinic acetylcholine receptor alpha9/alpha10 (P43144 whole entry): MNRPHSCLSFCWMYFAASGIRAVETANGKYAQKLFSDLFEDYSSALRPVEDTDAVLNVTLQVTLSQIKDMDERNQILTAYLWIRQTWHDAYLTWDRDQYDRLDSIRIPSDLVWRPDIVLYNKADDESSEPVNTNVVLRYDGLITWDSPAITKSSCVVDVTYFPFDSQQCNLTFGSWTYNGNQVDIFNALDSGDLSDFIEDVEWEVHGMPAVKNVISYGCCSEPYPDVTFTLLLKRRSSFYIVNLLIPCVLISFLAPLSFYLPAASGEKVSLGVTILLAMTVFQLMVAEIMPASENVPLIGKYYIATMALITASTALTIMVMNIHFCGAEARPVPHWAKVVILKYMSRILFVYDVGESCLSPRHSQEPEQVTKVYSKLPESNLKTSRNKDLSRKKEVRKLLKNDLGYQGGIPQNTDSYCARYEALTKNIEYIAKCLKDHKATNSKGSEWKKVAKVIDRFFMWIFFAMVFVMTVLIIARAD
Chain of Nicotinic acetylcholine receptor alpha9/alpha10 (Q9JLB5 whole entry): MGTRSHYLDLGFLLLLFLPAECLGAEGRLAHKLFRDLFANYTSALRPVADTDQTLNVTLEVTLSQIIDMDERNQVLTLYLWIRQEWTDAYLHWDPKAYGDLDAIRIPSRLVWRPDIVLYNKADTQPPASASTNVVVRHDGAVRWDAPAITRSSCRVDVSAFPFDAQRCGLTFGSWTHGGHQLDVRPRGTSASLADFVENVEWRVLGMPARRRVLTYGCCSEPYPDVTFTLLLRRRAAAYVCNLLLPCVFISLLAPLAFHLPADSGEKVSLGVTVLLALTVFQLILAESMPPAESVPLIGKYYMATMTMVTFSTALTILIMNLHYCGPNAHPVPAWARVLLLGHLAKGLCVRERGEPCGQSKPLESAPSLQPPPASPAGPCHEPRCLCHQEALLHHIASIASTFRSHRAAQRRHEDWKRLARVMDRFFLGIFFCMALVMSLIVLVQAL

Chain of Neuronal acetylcholine receptor subunit alpha-7 (Q05941 whole entry): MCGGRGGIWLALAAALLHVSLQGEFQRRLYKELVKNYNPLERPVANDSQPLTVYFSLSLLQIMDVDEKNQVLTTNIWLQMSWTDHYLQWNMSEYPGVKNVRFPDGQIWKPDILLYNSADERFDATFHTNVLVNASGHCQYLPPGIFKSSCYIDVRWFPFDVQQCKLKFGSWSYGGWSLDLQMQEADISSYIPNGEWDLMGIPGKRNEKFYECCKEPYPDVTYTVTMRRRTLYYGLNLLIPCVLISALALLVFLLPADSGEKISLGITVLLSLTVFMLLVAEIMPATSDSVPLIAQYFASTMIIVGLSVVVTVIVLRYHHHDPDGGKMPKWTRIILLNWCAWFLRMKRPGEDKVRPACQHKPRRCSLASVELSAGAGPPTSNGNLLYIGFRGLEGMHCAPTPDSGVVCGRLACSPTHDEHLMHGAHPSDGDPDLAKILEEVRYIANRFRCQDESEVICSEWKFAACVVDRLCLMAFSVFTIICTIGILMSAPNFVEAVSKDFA

Structure (SMILES)	pIC50 [1]	pIC50 [2]
CC[C@H](C)[C@@H]1NC(=O)[C@H](CCCNC(=N)N)NC(=O)[C@H](CCCNC(=N)N)NC(=O)[C@@H](NC(=O)[C@H](Cc2ccc(O)cc2)NC(=O)[C@H](CCCNC(=N)N)NC(=O)[C@H](CCCNC(=N)N)NC(=O)[C@H](CCCNC(=N)N)NC(=O)[C@H](CCCNC(=N)N)NC(=O)[C@H](CC(=O)O)NC(=O)[C@H](C)NC(=O)[C@@H]2CCCN2C(=O)[C@H](CO)NC(=O)[C@H](CCCNC(=N)N)NC(=O)[C@@H]2CSSC[C@H](NC(=O)[C@@H](N)[C@@H](C)O)C(=O)N[C@@H](CCCNC(=N)N)C(=O)N[C@@H](CO)C(=O)N[C@@H](CO)C(=O)NCC(=O)N[C@@H](CCCNC(=N)N)C(=O)N[C@@H](Cc3ccc(O)cc3)C(=O)N2)CSSC[C@@H](C(=O)N[C@H](C(=O)O)C(C)C)NC(=O)[C@H](C)NC(=O)[C@H](CC(=O)O)NC(=O)[C@H]([C@@H](C)O)NC1=O (HELM PEPTIDE1{T.C.R.S.S.G.R.Y.C.R.S.P.A.D.R.R.R.R.Y.C.R.R.I.T.D.A.C.V}$PEPTIDE1,PEPTIDE1,2:R3-9:R3|PEPTIDE1,PEPTIDE1,20:R3-27:R3$$$V2.0)	5.52	7.96
CC[C@H](C)[C@@H]1NC(=O)[C@H](CCCNC(=N)N)NC(=O)[C@H](CCCNC(=N)N)NC(=O)[C@@H](NC(=O)[C@H](Cc2ccc(O)cc2)NC(=O)[C@H](CCCNC(=N)N)NC(=O)[C@H](CCCNC(=N)N)NC(=O)[C@H](C)NC(=O)[C@H](CCCNC(=N)N)NC(=O)[C@H](CC(=O)O)NC(=O)[C@H](Cc2ccc(O)cc2)NC(=O)[C@@H]2CCCN2C(=O)[C@H](CO)NC(=O)[C@H](CCCNC(=N)N)NC(=O)[C@@H]2CSSC[C@H](NC(=O)[C@@H](N)[C@@H](C)O)C(=O)N[C@@H](CCCNC(=N)N)C(=O)N[C@@H](CO)C(=O)N[C@@H](CO)C(=O)NCC(=O)N[C@@H](CCCNC(=N)N)C(=O)N[C@@H](Cc3ccc(O)cc3)C(=O)N2)CSSC[C@@H](C(=O)N[C@H](C(=O)O)C(C)C)NC(=O)[C@H](C)NC(=O)[C@H](CC(=O)O)NC(=O)[C@H]([C@@H](C)O)NC1=O	5.42	7.74
CC[C@H](C)[C@@H]1NC(=O)[C@H](CCCNC(=N)N)NC(=O)[C@H](CCCNC(=N)N)NC(=O)[C@@H]2CSSC[C@H](NC(=O)[C@H](Cc3ccc(O)cc3)NC(=O)[C@H](CCCNC(=N)N)NC(=O)CNC(=O)[C@H](CO)NC(=O)[C@H](CO)NC(=O)[C@H](CCCNC(=N)N)NC(=O)[C@@H](NC(=O)[C@@H](N)[C@@H](C)O)CSSC[C@@H](C(=O)N[C@H](C(=O)O)C(C)C)NC(=O)[C@H](C)NC(=O)[C@H](CC(=O)O)NC(=O)[C@H]([C@@H](C)O)NC1=O)C(=O)N[C@@H](CCCNC(=N)N)C(=O)N[C@@H](CO)C(=O)N1CCC[C@H]1C(=O)N[C@@H](Cc1ccc(O)cc1)C(=O)N[C@@H](CC(=O)O)C(=O)N[C@@H](CCCNC(=N)N)C(=O)N[C@@H](C)C(=O)N[C@@H](CCCNC(=N)N)C(=O)N[C@@H](CCCNC(=N)N)C(=O)N[C@@H](Cc1ccc(O)cc1)C(=O)N2	< 5.00	7.08
CC[C@H](C)[C@@H]1NC(=O)[C@H](CCCNC(=N)N)NC(=O)[C@H](CCCNC(=N)N)NC(=O)[C@@H]2CSSC[C@H](NC(=O)[C@H](Cc3ccc(O)cc3)NC(=O)[C@H](CCCNC(=N)N)NC(=O)CNC(=O)[C@H](CO)NC(=O)[C@H](CO)NC(=O)[C@H](CCCNC(=N)N)NC(=O)[C@@H](NC(=O)[C@@H](N)[C@@H](C)O)CSSC[C@@H](C(=O)N[C@H](C(=O)O)C(C)C)NC(=O)[C@H](C)NC(=O)[C@H](CC(=O)O)NC(=O)[C@H]([C@@H](C)O)NC1=O)C(=O)N[C@@H](CCCNC(=N)N)C(=O)N[C@@H](CO)C(=O)N1CCC[C@H]1C(=O)N[C@@H](Cc1ccc(O)cc1)C(=O)N[C@@H](CC(=O)O)C(=O)N[C@@H](C)C(=O)N[C@@H](CCCNC(=N)N)C(=O)N[C@@H](CCCNC(=N)N)C(=O)N[C@@H](CCCNC(=N)N)C(=O)N[C@@H](Cc1ccc(O)cc1)C(=O)N2	5.19	7.47
CC[C@H](C)[C@@H]1NC(=O)[C@H](CCCNC(=N)N)NC(=O)[C@H](CCCNC(=N)N)NC(=O)[C@@H](NC(=O)[C@H](Cc2ccc(O)cc2)NC(=O)[C@H](CCCNC(=N)N)NC(=O)[C@H](CCCNC(=N)N)NC(=O)[C@H](CCCNC(=N)N)NC(=O)[C@H](CCCNC(=N)N)NC(=O)[C@H](C)NC(=O)[C@H](Cc2ccc(O)cc2)NC(=O)[C@@H]2CCCN2C(=O)[C@H](CO)NC(=O)[C@H](CCCNC(=N)N)NC(=O)[C@@H]2CSSC[C@H](NC(=O)[C@@H](N)[C@@H](C)O)C(=O)N[C@@H](CCCNC(=N)N)C(=O)N[C@@H](CO)C(=O)N[C@@H](CO)C(=O)NCC(=O)N[C@@H](CCCNC(=N)N)C(=O)N[C@@H](Cc3ccc(O)cc3)C(=O)N2)CSSC[C@@H](C(=O)N[C@H](C(=O)O)C(C)C)NC(=O)[C@H](C)NC(=O)[C@H](CC(=O)O)NC(=O)[C@H]([C@@H](C)O)NC1=O (HELM PEPTIDE1{T.C.R.S.S.G.R.Y.C.R.S.P.Y.A.R.R.R.R.Y.C.R.R.I.T.D.A.C.V}$PEPTIDE1,PEPTIDE1,2:R3-9:R3|PEPTIDE1,PEPTIDE1,20:R3-27:R3$$$V2.0)	5.51	7.82
CC[C@H](C)[C@@H]1NC(=O)[C@H](C)NC(=O)[C@H](CCCNC(=N)N)NC(=O)[C@@H](NC(=O)[C@H](Cc2ccc(O)cc2)NC(=O)[C@H](CCCNC(=N)N)NC(=O)[C@H](CCCNC(=N)N)NC(=O)[C@H](CCCNC(=N)N)NC(=O)[C@H](CCCNC(=N)N)NC(=O)[C@H](CC(=O)O)NC(=O)[C@H](Cc2ccc(O)cc2)NC(=O)[C@@H]2CCCN2C(=O)[C@H](CO)NC(=O)[C@H](CCCNC(=N)N)NC(=O)[C@@H]2CSSC[C@H](NC(=O)[C@@H](N)[C@@H](C)O)C(=O)N[C@@H](CCCNC(=N)N)C(=O)N[C@@H](CO)C(=O)N[C@@H](CO)C(=O)NCC(=O)N[C@@H](CCCNC(=N)N)C(=O)N[C@@H](Cc3ccc(O)cc3)C(=O)N2)CSSC[C@@H](C(=O)N[C@H](C(=O)O)C(C)C)NC(=O)[C@H](C)NC(=O)[C@H](CC(=O)O)NC(=O)[C@H]([C@@H](C)O)NC1=O	6.22	7.27
CC[C@H](C)[C@@H]1NC(=O)[C@H](CCCNC(=N)N)NC(=O)[C@H](CCCNC(=N)N)NC(=O)[C@@H](NC(=O)[C@H](Cc2ccc(O)cc2)NC(=O)[C@H](CCCNC(=N)N)NC(=O)[C@H](CCCNC(=N)N)NC(=O)[C@H](CCCNC(=N)N)NC(=O)[C@H](CCCNC(=N)N)NC(=O)[C@H](CC(=O)O)NC(=O)[C@H](Cc2ccc(O)cc2)NC(=O)[C@@H]2CCCN2C(=O)[C@H](CO)NC(=O)[C@H](CCCNC(=N)N)NC(=O)[C@@H]2CSSC[C@H](NC(=O)[C@H](C)N)C(=O)N[C@@H](CCCNC(=N)N)C(=O)N[C@@H](CO)C(=O)N[C@@H](CO)C(=O)NCC(=O)N[C@@H](CCCNC(=N)N)C(=O)N[C@@H](Cc3ccc(O)cc3)C(=O)N2)CSSC[C@@H](C(=O)N[C@H](C(=O)O)C(C)C)NC(=O)[C@H](C)NC(=O)[C@H](CC(=O)O)NC(=O)[C@H]([C@@H](C)O)NC1=O	5.97	8.09
CC[C@H](C)[C@@H]1NC(=O)[C@H](CCCNC(=N)N)NC(=O)[C@H](CCCNC(=N)N)NC(=O)[C@@H](NC(=O)[C@H](Cc2ccc(O)cc2)NC(=O)[C@H](CCCNC(=N)N)NC(=O)[C@H](CCCNC(=N)N)NC(=O)[C@H](CCCNC(=N)N)NC(=O)[C@H](CCCNC(=N)N)NC(=O)[C@H](CC(=O)O)NC(=O)[C@H](Cc2ccc(O)cc2)NC(=O)[C@@H]2CCCN2C(=O)[C@H](C)NC(=O)[C@H](CCCNC(=N)N)NC(=O)[C@@H]2CSSC[C@H](NC(=O)[C@@H](N)[C@@H](C)O)C(=O)N[C@@H](CCCNC(=N)N)C(=O)N[C@@H](CO)C(=O)N[C@@H](CO)C(=O)NCC(=O)N[C@@H](CCCNC(=N)N)C(=O)N[C@@H](Cc3ccc(O)cc3)C(=O)N2)CSSC[C@@H](C(=O)N[C@H](C(=O)O)C(C)C)NC(=O)[C@H](C)NC(=O)[C@H](CC(=O)O)NC(=O)[C@H]([C@@H](C)O)NC1=O (HELM PEPTIDE1{T.C.R.S.S.G.R.Y.C.R.A.P.Y.D.R.R.R.R.Y.C.R.R.I.T.D.A.C.V}$PEPTIDE1,PEPTIDE1,2:R3-9:R3|PEPTIDE1,PEPTIDE1,20:R3-27:R3$$$V2.0)	5.69	7.59
CC[C@H](C)[C@@H]1NC(=O)[C@H](CCCNC(=N)N)NC(=O)[C@H](CCCNC(=N)N)NC(=O)[C@@H]2CSSC[C@H](NC(=O)[C@H](Cc3ccc(O)cc3)NC(=O)[C@H](CCCNC(=N)N)NC(=O)CNC(=O)[C@H](CO)NC(=O)[C@H](CO)NC(=O)[C@H](CCCNC(=N)N)NC(=O)[C@@H](NC(=O)[C@@H](N)[C@@H](C)O)CSSC[C@@H](C(=O)N[C@H](C(=O)O)C(C)C)NC(=O)[C@H](C)NC(=O)[C@H](CC(=O)O)NC(=O)[C@H](C)NC1=O)C(=O)N[C@@H](CCCNC(=N)N)C(=O)N[C@@H](CO)C(=O)N1CCC[C@H]1C(=O)N[C@@H](Cc1ccc(O)cc1)C(=O)N[C@@H](CC(=O)O)C(=O)N[C@@H](CCCNC(=N)N)C(=O)N[C@@H](CCCNC(=N)N)C(=O)N[C@@H](CCCNC(=N)N)C(=O)N[C@@H](CCCNC(=N)N)C(=O)N[C@@H](Cc1ccc(O)cc1)C(=O)N2	5.15	7.44
CC[C@H](C)[C@@H]1NC(=O)[C@H](CCCNC(=N)N)NC(=O)[C@H](CCCNC(=N)N)NC(=O)[C@@H](NC(=O)[C@H](Cc2ccc(O)cc2)NC(=O)[C@H](CCCNC(=N)N)NC(=O)[C@H](CCCNC(=N)N)NC(=O)[C@H](CCCNC(=N)N)NC(=O)[C@H](CCCNC(=N)N)NC(=O)[C@H](CC(=O)O)NC(=O)[C@H](Cc2ccc(O)cc2)NC(=O)[C@@H]2CCCN2C(=O)[C@H](CO)NC(=O)[C@H](CCCNC(=N)N)NC(=O)[C@@H]2CSSC[C@H](NC(=O)[C@@H](N)[C@@H](C)O)C(=O)N[C@@H](CCCNC(=N)N)C(=O)N[C@@H](CO)C(=O)N[C@@H](CO)C(=O)NCC(=O)N[C@@H](C)C(=O)N[C@@H](Cc3ccc(O)cc3)C(=O)N2)CSSC[C@@H](C(=O)N[C@H](C(=O)O)C(C)C)NC(=O)[C@H](C)NC(=O)[C@H](CC(=O)O)NC(=O)[C@H]([C@@H](C)O)NC1=O (HELM PEPTIDE1{T.C.R.S.S.G.A.Y.C.R.S.P.Y.D.R.R.R.R.Y.C.R.R.I.T.D.A.C.V}$PEPTIDE1,PEPTIDE1,2:R3-9:R3|PEPTIDE1,PEPTIDE1,20:R3-27:R3$$$V2.0)	5.83	7.36
